Experimental data published in US20250230193A1, “CYCLIC COMPOUND HAVING SELECTIVE KRAS INHIBITORY EFFECT ON HRAS AND NRAS” (CHUGAI SEIYAKU KABUSHIKI KAISHA, priority 2022, published 2025).
Where a SMILES comes first, the peptide text is derived from it. Bridges are numbered along the chain shown (N, C = ends). [ ]: non-standard residue; d: D form. The star is where a group is joined. hPhe(3-Cl-4-CF3) = N[C@@H](CCc1ccc(C(F)(F)F)c(Cl)c1)C(=O)O; NPrPhe(4-CF3) = CCCN[C@@H](Cc1ccc(C(F)(F)F)cc1)C(=O)O; NMeGly(cPent) = CN[C@H](C(=O)O)C1CCCC1; Hyp = O=C(O)[C@@H]1C[C@@H](O)CN1; NMeD = CN[C@@H](CC(=O)O)C(=O)O; NMeL = CN[C@@H](CC(C)C)C(=O)O; Morpholide = C1CN(*)CCO1; NMeA = CN[C@@H](C)C(=O)O; Ac5c = NC1(C(=O)O)CCCC1; Aze = O=C(O)[C@@H]1CCN1; Sar = CNCC(=O)O

Experiments:
[1] = target: GDP-bound NRAS wild-type protein (Homo sapiens, UniProt P01111); test: Binding to NRAS by surface plasmon resonance (SPR), Single Cycle Kinetics
Chain of GDP-bound NRAS wild-type protein (P01111 whole entry): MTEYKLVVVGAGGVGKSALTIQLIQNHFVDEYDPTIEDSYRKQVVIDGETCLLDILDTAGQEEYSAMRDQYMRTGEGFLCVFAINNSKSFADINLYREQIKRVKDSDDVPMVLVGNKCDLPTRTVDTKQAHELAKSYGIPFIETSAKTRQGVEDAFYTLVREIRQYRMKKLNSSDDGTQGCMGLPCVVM

[2] = target: GDP-bound HRAS wild-type protein (Homo sapiens, UniProt P01112); test: Binding to HRAS by surface plasmon resonance (SPR), Single Cycle Kinetics
Chain of GDP-bound HRAS wild-type protein (P01112 whole entry): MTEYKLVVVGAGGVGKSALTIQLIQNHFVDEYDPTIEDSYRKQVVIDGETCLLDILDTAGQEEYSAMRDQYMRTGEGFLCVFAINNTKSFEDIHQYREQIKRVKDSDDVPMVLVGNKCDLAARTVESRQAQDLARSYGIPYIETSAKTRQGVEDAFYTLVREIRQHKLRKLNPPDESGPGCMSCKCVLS

[3] = KD ratio, GDP-bound NRAS wild-type vs GDP-bound KRAS wild-type, SPR
[4] = KD ratio, GDP-bound HRAS wild-type vs GDP-bound KRAS wild-type, SPR

CCC[C@H]1C(=O)N[C@@H]([C@@H](C)CC)C(=O)N(C2CC2)CC(=O)N(C)[C@H]2C/C=C\CCN(C2=O)[C@@H](Cc2ccc(C)cc2)C(=O)N(C)CC(=O)N[C@@H](CCc2ccc(Cl)c(Cl)c2)C(=O)N2C[C@H](OCC)C[C@H]2C(=O)NC2(CC(C)(C)C2)C(=O)N(C)[C@@H](CC2CCC2)C(=O)N(C)[C@H](C(=O)N(C)C)CC(=O)N1C [PP2761]
NRAS/KRAS (ratio of KD value with respect to GDP-bound NRAS wild-type protein to KD value with respect to KRAS) ([1]; KD ratio NRAS/KRAS, class symbols): A (a compound having 10 or more and less than 20 is denoted as A) | HRAS/KRAS (ratio of KD value with respect to GDP-bound HRAS wild-type protein to KD value with respect to KRAS) ([2]; KD ratio HRAS/KRAS, class symbols): A (a compound having 10 or more and less than 20 is denoted as A)

CCCN1C(=O)[C@@H]2CCN2C(=O)[C@H](C)N(C)C(=O)[C@H]([C@@H](C)CC)NC(=O)[C@H](CC(C)C)N(C)C(=O)C[C@@H](C(=O)N2CCOCC2)N(C)C(=O)[C@H](C2CCCC2)N(C)C(=O)C2(CCCC2)NC(=O)[C@@H]2C[C@@H](OC)CN2C(=O)[C@H](CCc2ccc(C(F)(F)F)c(Cl)c2)NC(=O)CN(C)C(=O)[C@@H]1Cc1ccc(C(F)(F)F)cc1 [PP0283] ([NMeL]I[NMeA][Aze][NPrPhe(4-CF3)][Sar][hPhe(3-Cl-4-CF3)][Hyp](Me)[Ac5c][NMeGly(cPent)][NMeD]-Morpholide; lactam N-11)
NRAS/KRAS (ratio of KD for GDP-bound NRAS wild-type to KD for KRAS) ([1]; KD ratio NRAS/KRAS, SPR): C (A compound having a KD ratio of 0.1 or more and less than 3 is denoted as C) | HRAS/KRAS (ratio of KD for GDP-bound HRAS wild-type to KD for KRAS) ([2]; KD ratio HRAS/KRAS, SPR): C (A compound having a KD ratio of 0.1 or more and less than 3 is denoted as C)

CC[C@H](C)[C@@H]1NC(=O)[C@H](CC(C)C)N(C)C(=O)C[C@@H](C(=O)N2CCOCC2)N(C)C(=O)[C@H](C2CCCC2)N(C)C(=O)C(C)(C)NC(=O)[C@@H]2CCCN2C(=O)[C@H](CCc2cc(F)c(C(F)(F)F)c(F)c2)NC(=O)CN(C)C(=O)[C@H](Cc2ccc(C(F)(F)F)cc2)N2CCCC[C@@H](C2=O)N(C)C(=O)CN(C)C1=O [PP0565]
NRAS/KRAS (ratio of KD value with respect to GDP-bound NRAS wild-type protein to KD value with respect to KRAS) ([1]; KD ratio NRAS/KRAS, SPR): C (A compound having a KD ratio of 0.1 or more and less than 3 is denoted as C) | HRAS/KRAS (ratio of KD value with respect to GDP-bound HRAS wild-type protein to KD value with respect to KRAS) ([2]; KD ratio HRAS/KRAS, SPR): B (a compound having 3 or more and less than 10 is denoted as B)

CCO[C@@H]1C[C@H]2C(=O)NC3(CC(C)(C)C3)C(=O)N(C)[C@@H](C3CCCC3)C(=O)N(C)[C@H](C(=O)N3CCCC3)CC(=O)N(C)[C@H]3CCCCCCc4ccc(cc4)C[C@@H](C(=O)N(C)CC(=O)N[C@@H](CCc4ccc(C(F)(F)F)c(OC)c4)C(=O)N2C1)N1CC/C=C\C[C@@H](C1=O)N(C)C(=O)CN(C)C(=O)[C@H]([C@@H](C)CC)NC3=O [PP3034, (1S,7S,11R,13S,19S,22S,26S,29S,35S,37Z)-19-cyclopentyl-11-ethoxy-7-[2-[3-methoxy-4-(trifluoromethyl)phenyl]ethyl]-3,3′,3′,18,21,25,31,34-octamethyl-29-[(1S)-1-methylpropyl]-22-(pyrrolidine-1-carbonyl)spiro[3,6,9,15,18,21,25,28,31,34,41-undecazapentacyclo[24.15.11.2^43,46.1^35,41.0^9,13]pentapentaconta-37,43(54),44,46(53)-tetraene-16,1′-cyclobutane]-2,5,8,14,17,20,24,27,30,33,55-undecone]
NRAS/KRAS (ratio of KD value with respect to GDP-bound NRAS wild-type protein to KD value with respect to KRAS) ([1]; KD ratio NRAS/KRAS, SPR, GDP-bound wild-type proteins): A (a compound having 10 or more and less than 20 is denoted as A) | HRAS/KRAS (ratio of KD value with respect to GDP-bound HRAS wild-type protein to KD value with respect to KRAS) ([2]; KD ratio HRAS/KRAS, SPR, GDP-bound wild-type proteins): B (a compound having 3 or more and less than 10 is denoted as B)

CCO[C@@H]1C[C@H]2C(=O)NC3(CC(C)(C)C3)C(=O)N(C)[C@@H](C(CC)CC)C(=O)N(C)[C@H](C(=O)N(C)C)CC(=O)N(C)[C@@H](CC)C(=O)N[C@@H]([C@@H](C)CC)C(=O)N(C)CC(=O)N(C)[C@H]3C/C=C\CCN(C3=O)[C@@H](Cc3ccc(C(F)(F)F)cc3)C(=O)N(C)CC(=O)N[C@@H](CCc3ccc(Cl)c(Cl)c3)C(=O)N2C1 [PP2179]
NRAS/KRAS (ratio of KD value with respect to NRAS to KD value with respect to KRAS) ([1]; SPR, GDP-bound NRAS wild-type vs GDP-bound KRAS wild-type): AA (a compound having 20 or more is denoted as AA) | HRAS/KRAS (ratio of KD value with respect to HRAS to KD value with respect to KRAS) ([2]; SPR, GDP-bound HRAS wild-type vs GDP-bound KRAS wild-type): A (a compound having 10 or more and less than 20 is denoted as A)

CCO[C@@H]1C[C@H]2C(=O)NC3(CCC3)C(=O)N(C)[C@@H](C3CCCC3)C(=O)N(C)[C@H](C(=O)N(C)C)CC(=O)N(C)[C@@H](Cc3ccc(F)c(F)c3)C(=O)N[C@@H]([C@@H](C)CC)C(=O)N(C)CC(=O)N(C)[C@H]3CCCCCN(C3=O)[C@@H](Cc3ccc(C(F)(F)F)cc3)C(=O)N(C)CC(=O)N[C@@H](CCc3cc(F)c(C(F)(F)F)c(F)c3)C(=O)N2C1 [PP0937]
NRAS/KRAS (ratio of KD value with respect to NRAS to KD value with respect to KRAS) [1, 3]: B (a compound having 3 or more and less than 10 is denoted as B) | HRAS/KRAS (ratio of KD value with respect to HRAS to KD value with respect to KRAS) [2, 4]: B (a compound having 3 or more and less than 10 is denoted as B)

CC[C@H](C)[C@@H]1NC(=O)[C@H](CC(F)F)N(C)C(=O)C[C@@H](C(=O)N(C)CC)N(C)C(=O)[C@H](C2CCCC2)N(C)C(=O)C2(CC(C)(C)C2)NC(=O)[C@@H]2C[C@H](C)CN2C(=O)[C@H](CCc2ccc(C(F)(F)F)c(Cl)c2)NC(=O)CN(C)C(=O)[C@H](Cc2ccc(C)cc2)N2CC/C=C\C[C@@H](C2=O)N(C)C(=O)CN(C)C1=O [PP1911]
NRAS/KRAS (ratio of KD value for NRAS to KD value for KRAS) [1, 3]: A (a compound having 10 or more and less than 20 is denoted as A) | HRAS/KRAS (ratio of KD value for HRAS to KD value for KRAS) [2, 4]: A (a compound having 10 or more and less than 20 is denoted as A)
